Reference: ChEMBL document CHEMBL3991601, “The target landscape of clinical kinase drugs” (Science, 2017)
Active and inactive are the calls of the source. Cut-off read from the data, not from the text of the source, for most assays here: actives have a measured Kd and inactives only a lower limit.

How the values were obtained:
[1] = biological target: S-adenosylmethionine synthase isoform type-2 (Homo sapiens, UniProt P31153)
[2] = biological target: Cyclin-dependent kinase 17 (Homo sapiens, UniProt Q00537)
[3] = biological target: Phosphatidylethanolamine-binding protein 1 (Homo sapiens, UniProt P30086)
[4] = biological target: T1, Phosphatidylinositol 5-phosphate 4-kinase type-2 alpha (Homo sapiens, UniProt P48426)
T1 sequence (P48426 whole entry): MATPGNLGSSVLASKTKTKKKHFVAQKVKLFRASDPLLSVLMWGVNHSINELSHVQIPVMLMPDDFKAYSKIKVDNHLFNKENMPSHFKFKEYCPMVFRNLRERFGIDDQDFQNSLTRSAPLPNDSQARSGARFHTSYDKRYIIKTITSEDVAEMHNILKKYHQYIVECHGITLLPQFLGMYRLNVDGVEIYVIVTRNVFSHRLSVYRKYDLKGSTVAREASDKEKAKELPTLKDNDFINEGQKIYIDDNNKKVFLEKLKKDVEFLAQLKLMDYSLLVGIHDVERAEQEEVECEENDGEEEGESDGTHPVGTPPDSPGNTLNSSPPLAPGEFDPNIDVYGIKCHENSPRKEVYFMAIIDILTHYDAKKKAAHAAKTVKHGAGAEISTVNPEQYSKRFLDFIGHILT

[5] = biological target: Dual specificity tyrosine-phosphorylation-regulated kinase 1A (Homo sapiens, UniProt Q13627)
[6] = biological target: Rho-associated protein kinase 2 (Homo sapiens, UniProt O75116)
[7] = biological target: T2, Thyroid hormone receptor-associated protein 3 (Homo sapiens, UniProt Q9Y2W1)
T2 sequence (Q9Y2W1 whole entry): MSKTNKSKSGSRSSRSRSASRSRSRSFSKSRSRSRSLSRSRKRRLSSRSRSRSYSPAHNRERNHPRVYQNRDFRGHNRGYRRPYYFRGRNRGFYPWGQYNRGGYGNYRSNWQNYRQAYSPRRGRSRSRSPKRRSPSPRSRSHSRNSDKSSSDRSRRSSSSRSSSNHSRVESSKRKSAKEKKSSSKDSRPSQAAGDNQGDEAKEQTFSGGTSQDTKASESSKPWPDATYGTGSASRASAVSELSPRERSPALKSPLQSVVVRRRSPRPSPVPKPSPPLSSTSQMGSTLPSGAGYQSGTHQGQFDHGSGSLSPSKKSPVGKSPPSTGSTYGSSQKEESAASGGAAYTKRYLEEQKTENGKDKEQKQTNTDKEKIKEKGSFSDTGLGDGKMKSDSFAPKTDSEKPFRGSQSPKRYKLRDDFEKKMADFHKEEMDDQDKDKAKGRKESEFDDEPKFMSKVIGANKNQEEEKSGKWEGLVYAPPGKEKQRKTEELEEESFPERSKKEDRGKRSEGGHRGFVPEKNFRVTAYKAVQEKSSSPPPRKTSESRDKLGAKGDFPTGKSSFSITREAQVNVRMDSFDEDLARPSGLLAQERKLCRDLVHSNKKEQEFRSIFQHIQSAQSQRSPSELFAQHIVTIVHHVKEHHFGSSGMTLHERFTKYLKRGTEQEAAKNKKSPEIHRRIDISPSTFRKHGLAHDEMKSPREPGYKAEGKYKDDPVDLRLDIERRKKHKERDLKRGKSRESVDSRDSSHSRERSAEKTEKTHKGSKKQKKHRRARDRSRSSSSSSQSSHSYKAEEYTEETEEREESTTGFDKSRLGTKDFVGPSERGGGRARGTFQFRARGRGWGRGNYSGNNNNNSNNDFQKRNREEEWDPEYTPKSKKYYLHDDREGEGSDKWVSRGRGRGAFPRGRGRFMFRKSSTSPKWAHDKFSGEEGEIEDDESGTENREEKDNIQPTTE

[8] = biological target: BMP-2-inducible protein kinase (Homo sapiens, UniProt Q9NSY1)
[9] = biological target: Ribosomal protein S6 kinase alpha-1 (Homo sapiens, UniProt Q15418)
[10] = biological target: STE20-like serine/threonine-protein kinase (Homo sapiens, UniProt Q9H2G2)
[11] = biological target: T3, Exosome RNA helicase MTR4 (Homo sapiens, UniProt P42285)
T3 sequence (P42285 whole entry): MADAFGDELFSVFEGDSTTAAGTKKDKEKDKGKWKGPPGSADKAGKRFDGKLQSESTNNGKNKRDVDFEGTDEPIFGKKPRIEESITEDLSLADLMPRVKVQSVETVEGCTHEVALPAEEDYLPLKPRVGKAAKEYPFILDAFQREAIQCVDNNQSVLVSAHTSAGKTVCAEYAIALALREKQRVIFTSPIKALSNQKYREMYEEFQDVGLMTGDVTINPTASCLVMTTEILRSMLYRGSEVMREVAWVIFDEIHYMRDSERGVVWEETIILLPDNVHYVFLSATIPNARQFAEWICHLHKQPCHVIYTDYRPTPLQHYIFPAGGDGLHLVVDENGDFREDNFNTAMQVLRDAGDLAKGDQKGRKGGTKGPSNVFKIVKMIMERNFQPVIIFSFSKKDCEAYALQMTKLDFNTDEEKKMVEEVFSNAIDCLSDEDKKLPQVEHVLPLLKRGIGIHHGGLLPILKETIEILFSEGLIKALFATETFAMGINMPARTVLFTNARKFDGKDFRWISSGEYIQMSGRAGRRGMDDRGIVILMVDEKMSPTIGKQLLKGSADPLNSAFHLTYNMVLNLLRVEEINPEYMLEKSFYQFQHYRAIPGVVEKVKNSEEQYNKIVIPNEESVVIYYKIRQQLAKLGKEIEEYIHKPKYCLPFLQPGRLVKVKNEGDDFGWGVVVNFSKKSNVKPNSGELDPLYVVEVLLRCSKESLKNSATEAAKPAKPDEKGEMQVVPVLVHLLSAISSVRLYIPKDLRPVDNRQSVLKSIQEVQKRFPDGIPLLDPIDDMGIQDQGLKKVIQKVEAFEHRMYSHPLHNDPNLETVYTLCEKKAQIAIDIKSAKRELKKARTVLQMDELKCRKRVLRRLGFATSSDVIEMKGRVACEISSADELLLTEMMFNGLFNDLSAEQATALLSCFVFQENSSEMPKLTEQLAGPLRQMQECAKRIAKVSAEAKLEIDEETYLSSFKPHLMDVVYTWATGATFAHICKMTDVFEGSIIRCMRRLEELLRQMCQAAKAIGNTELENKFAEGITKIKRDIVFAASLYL

[12] = biological target: Mitogen-activated protein kinase kinase kinase 1 (Homo sapiens, UniProt Q13233)
[13] = biological target: Serine/threonine-protein kinase pim-1 (Homo sapiens, UniProt P11309)
Note: in the data inactive means no Kd found up to 30 µM.

Sequence of S-adenosylmethionine synthase isoform type-2 (P31153 whole entry, canonical isoform): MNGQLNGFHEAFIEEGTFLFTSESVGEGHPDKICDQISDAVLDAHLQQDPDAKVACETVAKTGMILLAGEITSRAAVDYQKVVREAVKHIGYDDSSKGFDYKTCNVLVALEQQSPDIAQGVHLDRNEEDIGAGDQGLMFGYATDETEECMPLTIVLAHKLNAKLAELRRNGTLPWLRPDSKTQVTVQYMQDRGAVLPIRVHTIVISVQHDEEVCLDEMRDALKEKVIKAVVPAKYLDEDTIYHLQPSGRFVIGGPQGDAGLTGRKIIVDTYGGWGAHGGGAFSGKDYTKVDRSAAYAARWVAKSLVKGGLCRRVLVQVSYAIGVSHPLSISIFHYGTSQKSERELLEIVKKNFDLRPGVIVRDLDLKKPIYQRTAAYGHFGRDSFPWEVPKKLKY
Sequence of Rho-associated protein kinase 2 (O75116 whole entry): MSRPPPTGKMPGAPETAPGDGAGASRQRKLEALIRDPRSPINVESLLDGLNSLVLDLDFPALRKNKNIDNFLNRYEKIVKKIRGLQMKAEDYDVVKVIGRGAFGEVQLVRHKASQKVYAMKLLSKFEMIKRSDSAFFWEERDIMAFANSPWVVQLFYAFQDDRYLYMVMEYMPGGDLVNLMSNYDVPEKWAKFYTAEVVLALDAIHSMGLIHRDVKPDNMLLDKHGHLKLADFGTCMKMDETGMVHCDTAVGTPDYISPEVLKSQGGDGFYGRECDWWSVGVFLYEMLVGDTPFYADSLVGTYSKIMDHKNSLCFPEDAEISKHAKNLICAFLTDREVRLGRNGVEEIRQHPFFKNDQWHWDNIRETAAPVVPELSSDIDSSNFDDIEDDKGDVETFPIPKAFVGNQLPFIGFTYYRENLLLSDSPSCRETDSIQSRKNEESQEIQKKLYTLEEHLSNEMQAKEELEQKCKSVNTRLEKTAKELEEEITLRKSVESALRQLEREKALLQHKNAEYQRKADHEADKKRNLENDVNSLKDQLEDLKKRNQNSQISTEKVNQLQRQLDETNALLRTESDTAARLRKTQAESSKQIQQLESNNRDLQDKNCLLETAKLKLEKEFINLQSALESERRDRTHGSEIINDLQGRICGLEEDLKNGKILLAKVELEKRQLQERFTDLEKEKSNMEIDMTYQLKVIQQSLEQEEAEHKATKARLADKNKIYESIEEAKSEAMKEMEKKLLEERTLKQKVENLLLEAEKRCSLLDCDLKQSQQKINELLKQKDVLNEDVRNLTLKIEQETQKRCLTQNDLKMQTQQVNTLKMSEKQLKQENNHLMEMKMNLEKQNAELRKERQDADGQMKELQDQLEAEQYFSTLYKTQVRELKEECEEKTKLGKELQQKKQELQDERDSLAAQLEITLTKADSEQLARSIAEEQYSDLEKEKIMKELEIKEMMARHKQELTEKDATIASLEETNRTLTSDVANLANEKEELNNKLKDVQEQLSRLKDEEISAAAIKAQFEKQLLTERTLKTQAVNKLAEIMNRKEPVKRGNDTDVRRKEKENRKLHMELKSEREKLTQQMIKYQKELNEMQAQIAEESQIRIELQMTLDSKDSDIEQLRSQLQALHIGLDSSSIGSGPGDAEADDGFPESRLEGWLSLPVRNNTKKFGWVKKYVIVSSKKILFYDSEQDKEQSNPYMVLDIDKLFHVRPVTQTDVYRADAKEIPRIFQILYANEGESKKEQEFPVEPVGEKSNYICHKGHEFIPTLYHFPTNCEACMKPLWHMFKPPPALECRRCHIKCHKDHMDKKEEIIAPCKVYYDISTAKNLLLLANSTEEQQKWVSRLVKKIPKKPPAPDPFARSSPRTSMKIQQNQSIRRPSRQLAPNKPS
Sequence of STE20-like serine/threonine-protein kinase (Q9H2G2 whole entry): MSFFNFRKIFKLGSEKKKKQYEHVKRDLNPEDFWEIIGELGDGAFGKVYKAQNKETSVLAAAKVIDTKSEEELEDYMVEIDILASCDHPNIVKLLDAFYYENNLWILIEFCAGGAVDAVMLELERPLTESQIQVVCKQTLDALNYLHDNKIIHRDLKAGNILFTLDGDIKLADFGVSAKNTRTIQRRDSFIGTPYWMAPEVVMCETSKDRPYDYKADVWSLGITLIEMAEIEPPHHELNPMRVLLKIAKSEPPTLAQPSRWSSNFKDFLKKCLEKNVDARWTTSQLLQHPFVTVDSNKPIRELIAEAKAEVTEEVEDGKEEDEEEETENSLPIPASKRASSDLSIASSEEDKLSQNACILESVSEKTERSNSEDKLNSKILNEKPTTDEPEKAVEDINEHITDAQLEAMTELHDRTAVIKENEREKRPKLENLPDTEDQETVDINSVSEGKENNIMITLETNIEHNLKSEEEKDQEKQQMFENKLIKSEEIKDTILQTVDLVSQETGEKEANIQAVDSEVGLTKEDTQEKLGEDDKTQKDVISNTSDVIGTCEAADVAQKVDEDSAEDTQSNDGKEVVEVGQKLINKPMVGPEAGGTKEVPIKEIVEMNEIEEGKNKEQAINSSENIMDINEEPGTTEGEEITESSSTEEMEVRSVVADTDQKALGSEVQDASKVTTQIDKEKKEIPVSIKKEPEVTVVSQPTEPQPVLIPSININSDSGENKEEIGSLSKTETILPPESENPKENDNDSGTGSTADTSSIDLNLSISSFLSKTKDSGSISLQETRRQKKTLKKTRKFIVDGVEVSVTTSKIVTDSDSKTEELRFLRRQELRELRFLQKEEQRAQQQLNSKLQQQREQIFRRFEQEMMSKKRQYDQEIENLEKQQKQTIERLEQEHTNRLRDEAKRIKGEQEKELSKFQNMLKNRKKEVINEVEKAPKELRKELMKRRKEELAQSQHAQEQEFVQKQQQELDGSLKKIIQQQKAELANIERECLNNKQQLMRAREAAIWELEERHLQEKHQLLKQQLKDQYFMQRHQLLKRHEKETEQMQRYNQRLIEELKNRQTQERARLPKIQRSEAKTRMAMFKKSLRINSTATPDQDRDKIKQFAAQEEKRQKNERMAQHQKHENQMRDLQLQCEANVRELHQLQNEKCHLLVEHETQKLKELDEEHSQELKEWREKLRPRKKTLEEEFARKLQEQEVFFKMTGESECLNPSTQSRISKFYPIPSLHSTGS
Sequence of Ribosomal protein S6 kinase alpha-1 (Q15418 whole entry): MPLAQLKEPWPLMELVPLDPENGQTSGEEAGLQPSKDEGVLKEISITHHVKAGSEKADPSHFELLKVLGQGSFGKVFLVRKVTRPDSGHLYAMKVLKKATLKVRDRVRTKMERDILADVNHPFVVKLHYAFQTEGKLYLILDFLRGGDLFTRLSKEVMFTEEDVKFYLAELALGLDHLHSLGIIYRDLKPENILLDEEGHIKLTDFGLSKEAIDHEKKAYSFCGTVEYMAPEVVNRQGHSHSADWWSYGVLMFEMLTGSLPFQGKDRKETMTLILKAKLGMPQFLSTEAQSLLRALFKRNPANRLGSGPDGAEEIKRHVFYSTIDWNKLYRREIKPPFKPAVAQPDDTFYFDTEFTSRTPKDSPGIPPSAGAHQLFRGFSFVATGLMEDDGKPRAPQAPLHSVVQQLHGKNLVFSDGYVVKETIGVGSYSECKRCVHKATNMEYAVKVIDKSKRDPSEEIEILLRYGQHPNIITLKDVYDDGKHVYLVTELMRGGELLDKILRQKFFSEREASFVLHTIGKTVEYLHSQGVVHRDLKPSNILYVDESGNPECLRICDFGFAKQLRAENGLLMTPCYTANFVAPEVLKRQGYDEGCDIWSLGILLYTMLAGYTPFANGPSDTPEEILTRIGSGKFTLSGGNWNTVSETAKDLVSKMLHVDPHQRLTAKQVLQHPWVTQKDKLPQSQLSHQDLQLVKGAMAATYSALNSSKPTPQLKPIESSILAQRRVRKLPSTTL
Sequence of Phosphatidylethanolamine-binding protein 1 (P30086 whole entry): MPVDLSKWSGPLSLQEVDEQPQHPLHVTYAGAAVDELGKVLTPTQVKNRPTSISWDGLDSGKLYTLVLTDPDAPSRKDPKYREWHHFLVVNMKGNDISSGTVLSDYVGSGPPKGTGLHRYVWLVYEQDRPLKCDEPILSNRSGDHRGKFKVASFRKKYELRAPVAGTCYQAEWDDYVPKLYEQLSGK
Sequence of Serine/threonine-protein kinase pim-1 (P11309 whole entry): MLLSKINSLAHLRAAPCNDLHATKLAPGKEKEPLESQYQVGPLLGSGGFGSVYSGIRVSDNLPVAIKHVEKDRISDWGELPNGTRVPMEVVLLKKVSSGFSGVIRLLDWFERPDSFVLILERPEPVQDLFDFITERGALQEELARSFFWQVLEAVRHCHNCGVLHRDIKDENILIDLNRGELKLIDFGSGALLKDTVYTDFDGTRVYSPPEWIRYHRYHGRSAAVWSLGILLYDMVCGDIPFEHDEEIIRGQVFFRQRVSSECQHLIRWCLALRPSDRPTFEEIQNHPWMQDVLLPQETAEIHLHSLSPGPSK
Sequence of Cyclin-dependent kinase 17 (Q00537 whole entry): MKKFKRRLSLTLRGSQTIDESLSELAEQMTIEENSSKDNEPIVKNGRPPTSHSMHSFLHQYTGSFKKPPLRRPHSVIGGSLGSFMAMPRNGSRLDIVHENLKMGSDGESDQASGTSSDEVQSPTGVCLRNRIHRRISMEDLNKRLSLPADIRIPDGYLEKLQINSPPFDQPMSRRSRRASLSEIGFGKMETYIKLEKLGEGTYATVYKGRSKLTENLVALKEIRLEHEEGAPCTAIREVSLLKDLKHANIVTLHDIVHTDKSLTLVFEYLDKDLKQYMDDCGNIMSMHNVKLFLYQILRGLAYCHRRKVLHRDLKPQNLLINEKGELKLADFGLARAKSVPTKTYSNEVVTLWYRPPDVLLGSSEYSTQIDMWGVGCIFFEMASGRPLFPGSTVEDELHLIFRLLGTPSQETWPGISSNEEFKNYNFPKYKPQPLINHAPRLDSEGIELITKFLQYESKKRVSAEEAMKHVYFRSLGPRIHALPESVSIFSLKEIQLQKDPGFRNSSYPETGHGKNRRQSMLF

## C[C@@H](NC(=O)c1ncnc(N)c1Cl)c1ncc(C(=O)Nc2cc(C(F)(F)F)c(Cl)cn2)s1 [TOVORAFENIB]
[1]
  Kd: > 30 µM (inactive)
[2]
  Kd: > 30 µM (inactive)
[3]
  Kd: > 30 µM (inactive)
[4]
  Kd: > 30 µM (inactive)
[5]
  Kd: 3.22 µM (active)
[6]
  Kd: > 30 µM (inactive)
[7]
  Kd: > 30 µM (inactive)
[8]
  Kd: > 30 µM (inactive)
[9]
  Kd: > 30 µM (inactive)
[10]
  Kd: > 30 µM (inactive)
[11]
  Kd: > 30 µM (inactive)
[12]
  Kd: 2.09 µM (active)
[13]
  Kd: > 30 µM (inactive)

## Cc1cc(Nc2ncnc3ccc(NC4=NC(C)(C)CO4)cc23)ccc1Oc1ccn2ncnc2c1 [TUCATINIB]
[1]
  Kd: > 30 µM (inactive)
[2]
  Kd: > 30 µM (inactive)
[3]
  Kd: > 30 µM (inactive)
[4]
  Kd: > 30 µM (inactive)
[5]
  Kd: > 30 µM (inactive)
[6]
  Kd: > 30 µM (inactive)
[7]
  Kd: > 30 µM (inactive)
[8]
  Kd: > 30 µM (inactive)
[9]
  Kd: > 30 µM (inactive)
[10]
  Kd: > 30 µM (inactive)
[11]
  Kd: > 30 µM (inactive)
[12]
  Kd: > 30 µM (inactive)
[13]
  Kd: > 30 µM (inactive)

## CN1C/C=C/CCOc2cccc(c2)-c2ccnc(n2)Nc2cccc(c2)C1 [ZOTIRACICLIB]
[1]
  Kd: > 30 µM (inactive)
[2]
  Kd: > 30 µM (inactive)
[3]
  Kd: > 30 µM (inactive)
[4]
  Kd: > 30 µM (inactive)
[5]
  Kd: 5.62 µM
[6]
  Kd: 59 µM
[7]
  Kd: > 30 µM (inactive)
[8]
  Kd: > 30 µM (inactive)
[9]
  Kd: > 30 µM (inactive)
[10]
  Kd: 6.37 µM (active)
[11]
  Kd: > 30 µM (inactive)
[12]
  Kd: > 30 µM (inactive)
[13]
  Kd: > 30 µM (inactive)
